# Legend:
# MRSA KS89 = experiment: MIC, broth microdilution, MRSA KS89; format: cell-based, Staphylococcus aureus; conditions: for MIC-fold improvement vs. vancomycin: MRSA KS8, ratio of MIC of vancomycin and MIC of analogue; for MIC: Staphylococcus aureus MRSA KS8, read-out: MIC
# Procedure, shortened: (§1)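 Broth microdilution per CLSI; controls = ultrapure water, non-inoculated broth. One set: + vancomycin 10 μM final alongside test analogue/control drug.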
# [1] = tested on: L1210, CEM and HeLa cell lines; experiment: Cytostatic activity, average or summary over L1210, CEM and HeLa; format: cell-based; conditions: average of L1210, CEM and HeLa; read-out: Toxicity (IC50) Average
# Procedure, shortened: (§2)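 Readout: Coulter cell number after drug exposure at 37°C. Durations differ by line (L1210 2 days; CEM 3 days; HeLa 4 days). Stock suspension 300,000–500,000 cells/mL, diluted by mixing with compound. Endpoint: IC50 vs negative control.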
# E. faecalis VRE 53 = experiment: MIC, broth microdilution, vancomycin-resistant E. faecalis VRE 53 (VanA); format: cell-based, Enterococcus faecalis; conditions: for MIC: Enterococcus faecalis VRE 53 (vancomycin-resistant), read-out: MIC; for MIC-fold improvement vs. vancomycin: VRE 53, ratio of MIC of vancomycin and MIC of analogue
# Procedure, shortened: as §1
# S. aureus VRSA = experiment: MIC, broth microdilution, vancomycin-resistant S. aureus (VRSA); format: cell-based, Staphylococcus aureus; conditions: for MIC: Staphylococcus aureus VRSA, read-out: MIC; for MIC-fold improvement vs. vancomycin: VRSA, ratio of MIC of vancomycin and MIC of analogue
# Procedure, shortened: as §1
# MRSA KS2 = experiment: MIC, broth microdilution, MRSA KS2; format: cell-based, Staphylococcus aureus; conditions: for MIC-fold improvement vs. vancomycin: MRSA KS2, ratio of MIC of vancomycin and MIC of analogue; for MIC: Staphylococcus aureus MRSA KS2, read-out: MIC
# Procedure, shortened: as §1
# E. faecalis VSE 1 = experiment: MIC, broth microdilution, vancomycin-sensitive E. faecalis (VSE 1); format: cell-based, Enterococcus faecalis; conditions: for MIC: Enterococcus faecalis VSE 1 (vancomycin-sensitive), read-out: MIC; for MIC-fold improvement vs. vancomycin: VSE 1, ratio of MIC of vancomycin and MIC of analogue
# Procedure, shortened: as §1
# MRSA KS1 = experiment: MIC, broth microdilution, MRSA KS1; format: cell-based, Staphylococcus aureus; conditions: for MIC-fold improvement vs. vancomycin: MRSA KS1, ratio of MIC of vancomycin and MIC of analogue; for MIC: Staphylococcus aureus MRSA KS1, read-out: MIC
# Procedure, shortened: as §1
# [2] = tested on: Murine leukemia (L1210) cells; experiment: Cytostatic activity, L1210 cell proliferation; format: cell-based; conditions: mean ± SD of three experiments; highest concentration tested 250 µM; 2 days; read-out: Toxicity (IC50) L1210
# Procedure, shortened: as §2
# S. aureus VISA/HIP5827 = experiment: MIC, broth microdilution, vancomycin-intermediate S. aureus VISA HIP5827; format: cell-based, Staphylococcus aureus; conditions: for MIC: Staphylococcus aureus VISA/HIP5827, read-out: MIC; for MIC-fold improvement vs. vancomycin: VISA/HIP5827, ratio of MIC of vancomycin and MIC of analogue
# Procedure, shortened: as §1
# E. faecalis VRE 6 = experiment: MIC, broth microdilution, vancomycin-resistant E. faecalis VRE 6 (VanA); format: cell-based, Enterococcus faecalis; conditions: for MIC: Enterococcus faecalis VRE 6 (vancomycin-resistant), read-out: MIC; for MIC-fold improvement vs. vancomycin: VRE 6, ratio of MIC of vancomycin and MIC of analogue
# Procedure, shortened: as §1
# MRSA KS6 = experiment: MIC, broth microdilution, MRSA KS6; format: cell-based, Staphylococcus aureus; conditions: for MIC-fold improvement vs. vancomycin: MRSA KS6, ratio of MIC of vancomycin and MIC of analogue; for MIC: Staphylococcus aureus MRSA KS6, read-out: MIC
# Procedure, shortened: as §1
# [3] = tested on: S. aureus VSSA (ATCC 6538); experiment: MIC, broth microdilution, vancomycin-sensitive S. aureus (VSSA/MSSA, ATCC 6538); format: cell-based, Staphylococcus aureus; conditions: for MIC: Staphylococcus aureus VSSA, read-out: MIC; for MIC-fold improvement vs. vancomycin: VSSA, ratio of MIC of vancomycin and MIC of analogue
# Procedure, shortened: as §1
# [4] = tested on: human cervix carcinoma (HeLa) cells; experiment: Cytostatic activity, HeLa cell proliferation; format: cell-based; conditions: mean ± SD of three experiments; highest concentration tested 250 µM; 4 days; read-out: Toxicity (IC50) HeLa
# Procedure, shortened: as §2
# E. faecalis VRE 37 = experiment: MIC, broth microdilution, vancomycin-resistant E. faecalis VRE 37 (VanA); format: cell-based, Enterococcus faecalis; conditions: for MIC: Enterococcus faecalis VRE 37 (vancomycin-resistant), read-out: MIC
# Procedure, shortened: as §1
# [5] = tested on: human T-lymphocyte (CEM) cells; experiment: Cytostatic activity, CEM cell proliferation; format: cell-based; conditions: mean ± SD of three experiments; highest concentration tested 250 µM; 3 days; read-out: Toxicity (IC50) CEM
# Procedure, shortened: as §2
# E. faecalis VRE 29 = experiment: MIC, broth microdilution, vancomycin-resistant E. faecalis VRE 29 (VanA); format: cell-based, Enterococcus faecalis; conditions: for MIC: Enterococcus faecalis VRE 29 (vancomycin-resistant), read-out: MIC; for MIC-fold improvement vs. vancomycin: VRE 29, ratio of MIC of vancomycin and MIC of analogue
# Procedure, shortened: as §1
MIC-fold improvement vs. vancomycin (MRSA KS89),MIC (MRSA KS89),MIC (E. faecalis VRE 53),MIC-fold improvement vs. vancomycin (E. faecalis VRE 53),MIC (S. aureus VRSA),MIC-fold improvement vs. vancomycin (S. aureus VRSA),MIC-fold improvement vs. vancomycin (MRSA KS2),MIC (MRSA KS2),MIC (E. faecalis VSE 1),MIC-fold improvement vs. vancomycin (E. faecalis VSE 1),MIC-fold improvement vs. vancomycin (MRSA KS1),MIC (MRSA KS1),MIC (S. aureus VISA/HIP5827),MIC-fold improvement vs. vancomycin (S. aureus VISA/HIP5827),MIC (E. faecalis VRE 6),MIC-fold improvement vs. vancomycin (E. faecalis VRE 6),MIC-fold improvement vs. vancomycin (MRSA KS6),MIC (MRSA KS6),SMILES,IC50 [1],IC50 [2],further results
2,0.39 µM,12.5 µM,32,12.5 µM,8,1,0.78 µM,0.39 µM,4,1,0.78 µM,0.78 µM,8,3.13 µM,64,2,0.39 µM,CN[C@H](CC(C)C)C(=O)N[C@H]1C(=O)N[C@@H](CC(N)=O)C(=O)N[C@H]2C(=O)N[C@H]3C(=O)N[C@H](C(=O)N[C@H](C(=O)NCC(=O)Nc4cc(C)cc(C)c4)c4cc(O)cc(O)c4-c4cc3ccc4O)[C@H](O)c3ccc(c(Cl)c3)Oc3cc2cc(c3O[C@@H]2O[C@H](CO)[C@@H](O)[C@H](O)[C@H]2O[C@H]2C[C@](C)(N)[C@H](O)[C@H](C)O2)Oc2ccc(cc2Cl)[C@H]1O [Vanc-11],178 µM,> 250 µM,"MIC [3]: 0.78 µM; MIC-fold improvement vs. vancomycin [3]: 1; IC50 [4]: 87 ± 9 µM; MIC (E. faecalis VRE 37): 12.5 µM; MIC-fold improvement vs. vancomycin (E. faecalis VRE 37; VRE 37, ratio of MIC of vancomycin and MIC of analogue): 64; IC50 [5]: 196 ± 15 µM; MIC (E. faecalis VRE 29): 6.25 µM; MIC-fold improvement vs. vancomycin (E. faecalis VRE 29): 32"
2,0.39 µM,25 µM,16,3.13 µM,32,2,0.39 µM,0.78 µM,2,2,0.39 µM,1.56 µM,4,6.25 µM,32,2,0.39 µM,CN[C@H](CC(C)C)C(=O)N[C@H]1C(=O)N[C@@H](CC(N)=O)C(=O)N[C@H]2C(=O)N[C@H]3C(=O)N[C@H](C(=O)N[C@H](C(=O)NCC(=O)Nc4ccc(C(F)(F)F)cc4)c4cc(O)cc(O)c4-c4cc3ccc4O)[C@H](O)c3ccc(c(Cl)c3)Oc3cc2cc(c3O[C@@H]2O[C@H](CO)[C@@H](O)[C@H](O)[C@H]2O[C@H]2C[C@](C)(N)[C@H](O)[C@H](C)O2)Oc2ccc(cc2Cl)[C@H]1O [Vanc-40],> 250 µM,> 250 µM,MIC [3]: 0.78 µM; MIC-fold improvement vs. vancomycin [3]: 1; IC50 [4]: > 250 µM; MIC (E. faecalis VRE 37): 12.5 µM; IC50 [5]: > 250 µM; MIC (E. faecalis VRE 29): 12.5 µM; MIC-fold improvement vs. vancomycin (E. faecalis VRE 29): 32

SMILES,MIC-fold improvement vs. vancomycin (MRSA KS89),MIC (MRSA KS89),MIC (E. faecalis VRE 53),MIC-fold improvement vs. vancomycin (E. faecalis VRE 53),MIC (S. aureus VRSA),MIC-fold improvement vs. vancomycin (S. aureus VRSA),MIC-fold improvement vs. vancomycin (MRSA KS2),MIC (MRSA KS2),MIC (E. faecalis VSE 1),MIC-fold improvement vs. vancomycin (E. faecalis VSE 1),MIC-fold improvement vs. vancomycin (MRSA KS1),MIC (MRSA KS1),MIC (S. aureus VISA/HIP5827),MIC-fold improvement vs. vancomycin (S. aureus VISA/HIP5827),MIC (E. faecalis VRE 6),MIC-fold improvement vs. vancomycin (E. faecalis VRE 6),MIC-fold improvement vs. vancomycin (MRSA KS6),MIC (MRSA KS6),IC50 [1],IC50 [2],further results
CN[C@H](CC(C)C)C(=O)N[C@H]1C(=O)N[C@@H](CC(N)=O)C(=O)N[C@H]2C(=O)N[C@H]3C(=O)N[C@H](C(=O)N[C@H](C(=O)NCCNC(=O)/C=C/c4ccc(NS(=O)(=O)c5ccc(C)cc5)cc4)c4cc(O)cc(O)c4-c4cc3ccc4O)[C@H](O)c3ccc(c(Cl)c3)Oc3cc2cc(c3O[C@@H]2O[C@H](CO)[C@@H](O)[C@H](O)[C@H]2O[C@H]2C[C@](C)(N)[C@H](O)[C@H](C)O2)Oc2ccc(cc2Cl)[C@H]1O [Vanc-55],2,0.39 µM,12.5 µM,32,0.39 µM,256,4,0.20 µM,0.39 µM,4,4,0.20 µM,0.78 µM,8,6.25 µM,32,2,0.39 µM,201 µM,> 250 µM,MIC [3]: 0.78 µM; MIC-fold improvement vs. vancomycin [3]: 1; IC50 [4]: 103 ± 10 µM; MIC (E. faecalis VRE 37): 12.5 µM; IC50 [5]: ≥ 250 µM; MIC (E. faecalis VRE 29): 12.5 µM; MIC-fold improvement vs. vancomycin (E. faecalis VRE 29): 32

# Source: article PMC6001238, “Iterative Chemical Engineering of Vancomycin Leads to Novel Vancomycin Analogs With a High in Vitro Therapeutic Index” (Frontiers in Microbiology, 2018)
